Measured values: ChEMBL document CHEMBL4130359, “Indazole-based ligands for estrogen-related receptor α as potential anti-diabetic agents” (Eur J Med Chem, 2017)
Calls of active or inactive are those of the source. The calls are words filed in the database; no cut-off is given here.

Legend:
[1] = tested on: Rattus norvegicus; test: Antidiabetic activity in Zucker rat sub-chronic fa/fa prediabetic model assessed as fasting blood insulin level at 3 mg/kg, po qd for 31 days measured on day 29 post dose (reference value: 8.5 +/- 1.4 ug/L); type: functional
[2] = tested on: Rattus norvegicus; test: Toxicity in Zucker rat sub-chronic fa/fa prediabetic model assessed as epididymal white adipose tissue weight at 3 mg/kg, po qd for 31 days measured on day 32 (reference value: 13.9 +/- 0.6 g); type: organism-based; conditions: in vivo, 744 h
[3] = tested on: Rattus norvegicus; test: Increase in PCK1 mRNA expression in epididymal white adipose tissue of Zucker rat sub-chronic fa/fa prediabetic model at 10 mg/kg, po qd for 15 days by RT-PCR method; type: functional, organism-based
[4] = Oral bioavailability in CD-1 mouse at 20 mg/kg administered via gavage by LC-MS analysis; type: ADME, organism-based; conditions: in vivo
[5] = tested on: Rattus norvegicus; test: Effect on NDUFS1 gene expression in epididymal white adipose tissue of Zucker rat sub-chronic fa/fa prediabetic model at 10 mg/kg, po qd for 15 days by microarray analysis relative to control; type: functional
[6] = tested on: Rattus norvegicus; test: Effect on AADAT gene expression in epididymal white adipose tissue of Zucker rat sub-chronic fa/fa prediabetic model at 10 mg/kg, po qd for 15 days by microarray analysis relative to control; type: functional
[7] = tested on: Rattus norvegicus; test: Effect on GHR gene expression in epididymal white adipose tissue of Zucker rat sub-chronic fa/fa prediabetic model at 10 mg/kg, po qd for 15 days by microarray analysis relative to control; type: functional
[8] = tested on: Rattus norvegicus; test: Antidiabetic activity in Zucker rat sub-chronic fa/fa prediabetic model assessed as fasting blood glucose level at 50 mg/kg, po qd for 31 days measured on day 29 post dose (reference value: 163 +/- 9.2 mg/dl); type: functional
[9] = tested on: Rattus norvegicus; test: Effect on ACADM gene expression in epididymal white adipose tissue of Zucker rat sub-chronic fa/fa prediabetic model at 10 mg/kg, po qd for 15 days by microarray analysis relative to control; type: functional
[10] = Cmax in […] chronic ob/ob model at 10 mg/kg, po qd for 28 days measured on day 28 post last dose; type: ADME, organism-based; parameters: dose 10 mg/kg, route oral; conditions: in vivo
[11] = tested on: Rattus norvegicus; type: functional, Zucker
[12] = tested on: Rattus norvegicus; test: Effect on TXNRD2 gene expression in epididymal white adipose tissue of Zucker rat sub-chronic fa/fa prediabetic model at 10 mg/kg, po qd for 15 days by microarray analysis relative to control; type: functional
[13] = tested on: Rattus norvegicus; test: Effect on SDHD gene expression in epididymal white adipose tissue of Zucker rat sub-chronic fa/fa prediabetic model at 10 mg/kg, po qd for 15 days by microarray analysis relative to control; type: functional
[14] = tested on: Rattus norvegicus; test: Toxicity in Zucker rat sub-chronic fa/fa prediabetic model assessed as heart weight at 3 mg/kg, po qd for 31 days measured on day 32 (reference value: 1.19 +/- 0.04 g); type: organism-based; conditions: in vivo, 744 h
[15] = AUC (0 to 24 hrs) in Zucker rat sub-chronic fa/fa prediabetic model at 3 mg/kg, po qd for 26 days measured on day 26 post last dose; type: ADME, organism-based; parameters: time < 24 hr, dose 3 mg/kg, route oral; conditions: in vivo
[16] = target: Estrogen receptor beta (Homo sapiens, UniProt Q92731); test: Inhibition of fluormone ES2 binding to recombinant full length human ERbeta expressed in insect cells by fluorescence polarization assay
Sequence of Estrogen receptor beta (Q92731 whole entry): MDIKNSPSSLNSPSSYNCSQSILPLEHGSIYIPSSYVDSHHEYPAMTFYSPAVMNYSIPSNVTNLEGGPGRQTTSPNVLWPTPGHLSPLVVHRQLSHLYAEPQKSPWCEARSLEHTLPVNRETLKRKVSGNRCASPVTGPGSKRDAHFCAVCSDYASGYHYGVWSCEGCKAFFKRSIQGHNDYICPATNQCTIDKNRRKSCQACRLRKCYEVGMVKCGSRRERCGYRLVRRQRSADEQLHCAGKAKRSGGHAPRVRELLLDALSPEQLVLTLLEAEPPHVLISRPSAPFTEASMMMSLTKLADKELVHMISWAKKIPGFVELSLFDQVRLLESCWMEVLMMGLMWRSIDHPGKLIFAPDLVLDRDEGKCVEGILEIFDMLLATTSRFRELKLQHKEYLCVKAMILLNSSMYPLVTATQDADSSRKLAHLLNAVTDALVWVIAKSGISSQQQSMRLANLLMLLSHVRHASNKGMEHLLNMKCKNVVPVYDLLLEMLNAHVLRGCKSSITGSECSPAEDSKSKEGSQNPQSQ

[17] = Cmax in […] chronic ob/ob model at 3 mg/kg, po qd for 28 days measured on day 28 post last dose; type: ADME, organism-based; parameters: dose 3 mg/kg, route oral; conditions: in vivo
[18] = target: Oxysterols receptor LXR-alpha (Homo sapiens, UniProt Q13133); test: Agonist activity at recombinant GST-tagged human LXRalpha LBD assessed as fluorescein-labeled coactivator peptide recruitment preincubated with enzyme followed by coactivator addition by LanthaScreen TR-FRET assay
Sequence of Oxysterols receptor LXR-alpha (Q13133 whole entry, the tested form may be a part): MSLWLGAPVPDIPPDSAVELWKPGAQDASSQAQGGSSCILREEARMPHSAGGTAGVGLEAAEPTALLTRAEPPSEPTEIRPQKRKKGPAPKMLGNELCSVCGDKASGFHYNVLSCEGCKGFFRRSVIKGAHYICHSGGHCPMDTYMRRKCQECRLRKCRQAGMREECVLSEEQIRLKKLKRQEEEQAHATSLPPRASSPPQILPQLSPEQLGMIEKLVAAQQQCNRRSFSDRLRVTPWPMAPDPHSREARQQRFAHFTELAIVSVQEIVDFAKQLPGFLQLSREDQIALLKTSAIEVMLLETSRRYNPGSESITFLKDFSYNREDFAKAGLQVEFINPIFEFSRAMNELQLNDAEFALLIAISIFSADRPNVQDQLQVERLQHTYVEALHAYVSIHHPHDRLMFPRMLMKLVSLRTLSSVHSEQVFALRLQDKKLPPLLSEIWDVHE

[19] = species: Rattus norvegicus; test: Toxicity in Zucker rat sub-chronic fa/fa prediabetic model assessed as increase in epididymal white adipose tissue weight during 15 day single dose study; type: organism-based; conditions: in vivo, 360 h
[20] = tested on: Rattus norvegicus; test: Toxicity in Zucker rat sub-chronic fa/fa prediabetic model assessed as effect on liver enzymes at 10 mg/kg, po qd during 10 days study; type: organism-based; conditions: in vivo, 240 h
[21] = tested on: Rattus norvegicus; test: Effect on PIK3CD gene expression in epididymal white adipose tissue of Zucker rat sub-chronic fa/fa prediabetic model at 10 mg/kg, po qd for 15 days by microarray analysis relative to control; type: functional
[22] = tested on: Rattus norvegicus; test: Toxicity in […] chronic ob/ob model assessed as brown adipose tissue weight at 3 mg/kg, po qd for 31 days measured on day 32 (reference value: 0.59 +/- 0.05 g); type: organism-based; conditions: in vivo, 744 h
[23] = tested on: Rattus norvegicus; test: Toxicity in Zucker rat sub-chronic fa/fa prediabetic model assessed as serum triglyceride level at 10 mg/kg, po qd for 31 days measured on day 32 (reference value: 1382 +/- 268 mg/dl); type: organism-based; conditions: in vivo, 744 h
[24] = tested on: Rattus norvegicus; test: Effect on ECSIT gene expression in epididymal white adipose tissue of Zucker rat sub-chronic fa/fa prediabetic model at 10 mg/kg, po qd for 15 days by microarray analysis relative to control; type: functional
[25] = target: Estrogen receptor (Homo sapiens, UniProt P03372); test: Inhibition of fluormone ES2 green binding to recombinant full length human ERalpha expressed in insect cells by fluorescence polarization assay
Sequence of Estrogen receptor (P03372 whole entry): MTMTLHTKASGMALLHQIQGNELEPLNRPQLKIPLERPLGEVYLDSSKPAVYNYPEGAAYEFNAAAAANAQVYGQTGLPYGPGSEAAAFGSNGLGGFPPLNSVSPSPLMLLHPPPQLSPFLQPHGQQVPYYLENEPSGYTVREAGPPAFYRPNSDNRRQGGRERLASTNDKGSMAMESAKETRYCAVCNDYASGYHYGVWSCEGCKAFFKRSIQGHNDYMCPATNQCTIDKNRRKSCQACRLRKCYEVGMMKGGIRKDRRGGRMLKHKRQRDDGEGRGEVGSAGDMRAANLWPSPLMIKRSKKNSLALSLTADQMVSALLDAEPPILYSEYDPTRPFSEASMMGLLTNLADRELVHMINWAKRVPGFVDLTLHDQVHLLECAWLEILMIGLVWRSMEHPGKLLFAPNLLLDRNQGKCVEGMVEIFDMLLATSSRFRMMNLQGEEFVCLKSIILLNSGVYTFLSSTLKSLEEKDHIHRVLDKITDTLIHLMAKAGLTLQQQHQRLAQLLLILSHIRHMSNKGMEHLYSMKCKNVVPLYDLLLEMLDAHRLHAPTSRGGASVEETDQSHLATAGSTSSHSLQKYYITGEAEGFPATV

[26] = tested on: Rattus norvegicus; test: Toxicity in […] chronic ob/ob model assessed as change in body weight at 50 mg/kg, po qd for 28 days measured on day 1 to 28 during compound dosing (reference value: 9.9 +/- 1.27 g); type: organism-based; conditions: in vivo, 672 h
[27] = tested on: Rattus norvegicus; test: Effect on ME1 gene expression in epididymal white adipose tissue of Zucker rat sub-chronic fa/fa prediabetic model at 10 mg/kg, po qd for 15 days by microarray analysis relative to control; type: functional
[28] = tested on: Rattus norvegicus; test: Toxicity in Zucker rat sub-chronic fa/fa prediabetic model assessed as triglyceride level per gram liver at 3 mg/kg, po qd for 31 days measured on day 32 (reference value: 163.4 +/- 8.3 mg); type: organism-based; conditions: in vivo, 744 h
[29] = tested on: Rattus norvegicus; test: Toxicity in Zucker rat sub-chronic fa/fa prediabetic model assessed as liver weight at 3 mg/kg, po qd for 31 days measured on day 32 (reference value: 28 +/- 1.6 g); type: organism-based; conditions: in vivo, 744 h
[30] = tested on: Rattus norvegicus; test: Toxicity in Zucker rat sub-chronic fa/fa prediabetic model assessed as body weight at 3 mg/kg, po qd for 29 days measured on day 29 post last dose (reference value: 533 +/- 10 g); type: organism-based; conditions: in vivo, 696 h
[31] = tested on: Rattus norvegicus; test: Effect on IKBKB gene expression in epididymal white adipose tissue of Zucker rat sub-chronic fa/fa prediabetic model at 10 mg/kg, po qd for 15 days by microarray analysis relative to control; type: functional
[32] = target: Estrogen-related receptor gamma (Homo sapiens, UniProt P62508); test: Antagonist activity at ERRgamma (unknown origin) assessed as inhibition of co-activator peptide recruitment by TR-FRET assay
Sequence of Estrogen-related receptor gamma (P62508 whole entry): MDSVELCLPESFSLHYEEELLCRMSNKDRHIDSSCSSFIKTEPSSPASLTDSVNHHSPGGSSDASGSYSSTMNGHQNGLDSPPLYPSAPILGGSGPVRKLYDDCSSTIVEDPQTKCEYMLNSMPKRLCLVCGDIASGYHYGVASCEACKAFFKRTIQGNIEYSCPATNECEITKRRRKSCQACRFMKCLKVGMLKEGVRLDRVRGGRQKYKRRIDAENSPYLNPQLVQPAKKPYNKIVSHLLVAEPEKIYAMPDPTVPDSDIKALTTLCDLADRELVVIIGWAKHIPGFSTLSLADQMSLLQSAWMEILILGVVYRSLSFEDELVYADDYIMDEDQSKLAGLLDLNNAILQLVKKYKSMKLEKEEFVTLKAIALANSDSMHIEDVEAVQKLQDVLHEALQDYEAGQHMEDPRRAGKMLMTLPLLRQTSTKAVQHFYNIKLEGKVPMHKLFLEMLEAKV

[33] = tested on: Rattus norvegicus; test: Effect on ACOT2 gene expression in epididymal white adipose tissue of Zucker rat sub-chronic fa/fa prediabetic model at 10 mg/kg, po qd for 15 days by microarray analysis relative to control; type: functional
[34] = tested on: Rattus norvegicus; test: Effect on THEM4 gene expression in epididymal white adipose tissue of Zucker rat sub-chronic fa/fa prediabetic model at 10 mg/kg, po qd for 15 days by microarray analysis relative to control; type: functional

CN1CC[C@@H](N2C(=O)S/C(=C\c3ccc4c(cnn4Cc4ccc(Cl)cc4C(F)(F)F)c3)C2=O)[C@H](F)C1
Activity [1]: 4.8 µg/L
Activity [2]: 17.8 g
Activity [3]: Active
bioavailability [4]: 52%
fold change (FC) [5]: 1.561
fold change (FC) [6]: 2.931
fold change (FC) [7]: 1.276
Activity [8]: 105 mg/dL
fold change (FC) [9]: 1.475
Cmax [10]: 454 ng/mL
Activity [11]: 17.3%
fold change (FC) [12]: 1.311
fold change (FC) [13]: 1.275
Activity [14]: 1.15 g
AUC at 24 h [15]: 10800 ng·h/mL
IC50 [16]: > 10 µM
Cmax [17]: 223 ng/mL
EC50 [18]: > 10 µM
Activity [19]: Non-Toxic
Activity [20]: Non-Toxic
fold change (FC) [21]: -1.312
Activity [22]: 0.61 g
Activity [23]: 341 mg/dL
fold change (FC) [24]: 1.339
IC50 [25]: > 10 µM
Activity [26]: 9.4 g
fold change (FC) [27]: 2.409
Activity [28]: 124.7 mg
Activity [29]: 20.6 g
Activity [30]: 561 g
fold change (FC) [31]: -1.241
IC50 [32]: > 10 µM
fold change (FC) [33]: 1.364
fold change (FC) [34]: 1.465
